Experiments:
Prostate Cancer [1] = assay: cells; settings: Homo sapiens, read-out: MG_MID GI50
Renal Cancer = Renal Cancer subpanel
MDA-MB-435 = assay: cells; settings: Homo sapiens, MDA-MB-435, 48 h; for CC50: read-out: LC50, MDA-MB-435, 48 h
MCF7 = assay: NCI-60 SRB screen; settings: MCF7, 48 h; for GI50: Homo sapiens
UO-31 = settings: UO-31, 48 h
[2] = tested on: Non-small cell lung cancer; settings: Non-small cell lung cancer subpanel
SK-MEL-5 = settings: for growth GP: SK-MEL-5, 10 μM, 48 h; for TGI: SK-MEL-5, 48 h
DU-145 = settings: for TGI: DU-145, 48 h
LOX IMVI [3] = settings: LOX IMVI, 48 h
PC-3 = settings: PC-3, 48 h
Ovarian cancer [4] = settings: Ovarian cancer subpanel
T-47D [5] = assay: cells; settings: Homo sapiens, T47D, 48 h; for GI50: T-47D
ACHN = assay: NCI-60 SRB screen; settings: 48 h; for growth GP: 10 μM; for GI50 / CC50: Homo sapiens; for CC50: read-out: LC50, ACHN, 48 h
LOX IMVI [6] = assay: cells; settings: Homo sapiens, 48 h; for CC50: read-out: LC50, LOX IMVI, 48 h
HS 578T = settings: 48 h
T-47D [7] = settings: 48 h
U251 = assay: NCI-60 SRB screen; settings: for GI50 / CC50: Homo sapiens, U-251, 48 h; for GI50 / TGI: U251, 48 h; for CC50: read-out: LC50, U251, 48 h
Breast cancer = Breast cancer subpanel
OVCAR-8 [8] = settings: OVCAR-8, 48 h
K-562 = settings: K-562, 48 h
OVCAR-8 [9] = assay: cells; settings: Homo sapiens, OVCAR-8, 48 h; for CC50: read-out: LC50, OVCAR-8, 48 h
SK-MEL-2 = assay: NCI-60 SRB screen; settings: SK-MEL-2, 48 h; for GI50 / CC50: Homo sapiens; for CC50: read-out: LC50, SK-MEL-2, 48 h
TK-10 = settings: TK-10, 48 h
Ovarian cancer [10] = assay: cells; settings: Homo sapiens; for GI50: read-out: MG_MID GI50; for CC50: read-out: MG_MID LC50
[11] = tested on: panel of 60 cancer cell lines; settings: for Positive cytostatic effect (ratio of cell lines with GP from 0 to 50 to total number) / Mean growth: 10 μM, 48 h; for Mean growth: one dose; for MG_MID TGI: full panel (last line of Table S2)
RPMI-8226 = assay: cells; settings: Homo sapiens, RPMI-8226, 48 h; for CC50: read-out: LC50
NCI-H322M = assay: NCI-60 SRB screen; settings: 48 h; for GI50 / CC50: Homo sapiens; for CC50: read-out: LC50, NCI-H322M, 48 h
MDA-MB-231 = assay: MTT assay; format: cell-based; settings: Homo sapiens; MDA-MB-231, 24 h of treatment
How it was run: (§1)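 Cells were exposed to compounds at 0.625–40.0 μM (seven concentrations, triplicate) for 24 h, then incubated with MTT for 2 h at 37 °C. After lysis in acidic SDS/DMF buffer (pH 4.7), absorbance was read at 570 nm.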

SH SY5Y = assay: MTT assay; format: cell-based; settings: Homo sapiens, 24 h of treatment
How it was run: as §1

HCT-116 = assay: MTT assay; format: cell-based; settings: Homo sapiens; HCT-116, 24 h of treatment
How it was run: as §1

Prostate Cancer [12] = settings: Prostate Cancer subpanel

CC(C)C(C(=O)O)N1C(=O)/C(=C/C=C/c2ccc([N+](=O)[O-])o2)SC1=S (centres unmarked) [5b, 3-Methyl-2-((Z)-5-((E)-3-(5-nitrofuran-2-yl)allylidene)-4-oxo-2-thioxothiazolidin-3-yl)butanoic acid]
GI50 (Prostate Cancer [1]): 1620 nM
MG_MID TGI (Renal Cancer): 3.27 µM
GI50 (MDA-MB-435): 850 nM
CC50 (MDA-MB-435): 5.01 µM
GI50 (MCF7): 430 nM
TGI (MCF7): 1.83 µM
TGI (UO-31): 3.11 µM
MG_MID TGI [2]: 4.25 µM
growth GP (SK-MEL-5): -99.69%
TGI (SK-MEL-5): 2.21 µM
growth GP (DU-145; DU-145, 10 μM, 48 h): -98.94%
TGI (DU-145): 2.82 µM
TGI (LOX IMVI [3]): 2.49 µM
TGI (PC-3): 6.52 µM
MG_MID TGI (Ovarian cancer [4]): 5.19 µM
GI50 (T-47D [5]): 1120 nM
growth GP (ACHN): -99.54%
TGI (ACHN): 2.64 µM
GI50 (ACHN): 1350 nM
CC50 (ACHN): 5.19 µM
GI50 (LOX IMVI [6]): 1160 nM
CC50 (LOX IMVI [6]): 5.33 µM
TGI (HS 578T): 7.56 µM
TGI (T-47D [7]): 3.24 µM
GI50 (U251): 500 nM
CC50 (U251): 4.64 µM
TGI (U251): 1.79 µM
MG_MID TGI (Breast cancer): 3.46 µM
TGI (OVCAR-8 [8]): 4.78 µM
TGI (K-562): 2.86 µM
GI50 (OVCAR-8 [9]): 1490 nM
CC50 (OVCAR-8 [9]): 25.1 µM
GI50 (SK-MEL-2): 1520 nM
CC50 (SK-MEL-2): 6.02 µM
TGI (SK-MEL-2): 3.03 µM
TGI (TK-10): 4.03 µM
GI50 (Ovarian cancer [10]): 1920 nM
CC50 (Ovarian cancer [10]): 17.4 µM
Positive cytostatic effect (ratio of cell lines with GP from 0 to 50 to total number) [11]: 2/55
Mean growth [11]: -73.80%
MG_MID TGI [11]: 3.53 µM
GI50 (RPMI-8226): 350 nM
CC50 (RPMI-8226): > 100 µM
TGI (NCI-H322M): 3.88 µM
GI50 (NCI-H322M): 1.82 µM
CC50 (NCI-H322M): 8.29 µM
IC50 (MDA-MB-231): 9.12 µM
IC50 (SH SY5Y): 9.37 µM
IC50 (HCT-116): 4.21 µM
MG_MID TGI (Prostate Cancer [12]): 4.67 µM

O=C(O)CCN1C(=O)/C(=C/C=C/c2ccc([N+](=O)[O-])o2)SC1=S [12b, 3-((Z)-5-((E)-3-(5-Nitrofuran-2-yl)allylidene)-4-oxo-2-thioxothiazolidin-3-yl)propanoic acid]
GI50 (Prostate Cancer [1]): 2550 nM
MG_MID TGI (Renal Cancer): 6.01 µM
GI50 (MDA-MB-435): 1160 nM
CC50 (MDA-MB-435): 5.32 µM
GI50 (MCF7): 460 nM
TGI (MCF7): 2.10 µM
TGI (UO-31): 2.25 µM
MG_MID TGI [2]: 7.75 µM
growth GP (SK-MEL-5): -97.62%
TGI (SK-MEL-5): 2.24 µM
TGI (DU-145): 10.6 µM
growth GP (LOX IMVI [3]; 10 μM): -95.70%
TGI (LOX IMVI [3]): 1.86 µM
TGI (PC-3): 10.6 µM
MG_MID TGI (Ovarian cancer [4]): 5.84 µM
GI50 (T-47D [5]): 940 nM
CC50 (T-47D [5]; read-out: LC50): > 100 µM
growth GP (ACHN): -99.00%
TGI (ACHN): 2.97 µM
GI50 (ACHN): 1610 nM
CC50 (ACHN): 5.46 µM
GI50 (LOX IMVI [6]): 580 nM
CC50 (LOX IMVI [6]): 4.34 µM
TGI (HS 578T): 7.93 µM
TGI (T-47D [7]): 3.55 µM
GI50 (U251): 1070 nM
CC50 (U251): 5.53 µM
TGI (U251): 2.43 µM
MG_MID TGI (Breast cancer): 3.64 µM
TGI (OVCAR-8 [8]): 7.11 µM
TGI (K-562): 2.73 µM
GI50 (OVCAR-8 [9]): 1840 nM
CC50 (OVCAR-8 [9]): 28.2 µM
GI50 (SK-MEL-2): 1440 nM
CC50 (SK-MEL-2): 5.68 µM
TGI (SK-MEL-2): 2.86 µM
TGI (TK-10): 3.81 µM
GI50 (Ovarian cancer [10]): 2050 nM
CC50 (Ovarian cancer [10]): 17.7 µM
Positive cytostatic effect (ratio of cell lines with GP from 0 to 50 to total number) [11]: 4/55
Mean growth [11]: -62.05%
MG_MID TGI [11]: 4.69 µM
GI50 (RPMI-8226): 1230 nM
CC50 (RPMI-8226): > 100 µM
TGI (NCI-H322M): 19.8 µM
GI50 (NCI-H322M): 7.06 µM
CC50 (NCI-H322M): 44.7 µM
IC50 (MDA-MB-231): 12.9 µM
IC50 (SH SY5Y): 13.1 µM
IC50 (HCT-116): 3.68 µM
MG_MID TGI (Prostate Cancer [12]): 10.6 µM
